The text below walks through data of PubChem BioAssay (NCI).

What all share (assay): inhibition of tumour cell growth, NCI panel, 48 h
The subject of test [1] is RXF 393 renal.
The subject of test [2] is K-562 leukemia.
For test [3], the system named is LOX IMVI melanoma.
For test [4], the system named is SK-OV-3 ovarian.
Test [5] deals with RPMI-8226 leukemia.
The subject of test [6] is MDA-MB-435.
Test [7] has as its system HCT-116 colon.
For test [8], the system named is SF-268 CNS.
Test [9] has as its system U251 CNS.
For test [10], the system named is BT-549 breast.
The test system of test [11] is OVCAR-5 ovarian.

Values joined by “and” are separate entries in the source; they are usually repeats but may differ in a detail not shown here. Equal entries are not always repeated.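 Dose response: 5 concentrations. Exposure: 48 h. Format: 96-well plates. Endpoint: linear interpolation; highest concentration if not reached. GI50 = concentration required for 50% inhibition of growth. TGI: total growth inhibition.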

`COc1ccc(NC(C)=O)cc1N1C(=O)/C(=C\c2ccccc2)SC1c1cc(OC)c(OC)c(OC)c1` (stereo not drawn): the TGI in test [1] is greater than 100 µM; in test [2], greater than 100 µM; in test [3], 34.5 µM; in [4], greater than 100 µM; in test [5] it was greater than 100 µM; in test [6] it was greater than 100 µM. Besides, the TGI in test [7] is 29.5 µM; in test [8], 43.9 µM; in test [9] it was greater than 100 µM; in test [10], greater than 100 µM.
Regarding `CCOC(=O)C1(C/C=C/CCl)CCCC1=O` (stereo not drawn), the TGI in test [1] was 32.7 µM; in test [3] it was 30.4 µM; in [11], 39.1 µM; in test [4] it was greater than 100 µM; in test [6] it was 44 µM; in test [7], 34.9 µM. Besides, the TGI in [8] turned out to be 68.1 µM; in test [9] it was 86.7 µM; in test [10], 40.8 µM.
As to `CCN(CC)CC[n+]1ccc2c(C)c3[nH]c4ccc(O)cc4c3c(C)c2c1`, the GI50 was 13.9 µM in [1]; 6.73 µM in test [3]; 5.94 µM in test [4]; 3.41 µM in [5]; 4.36 µM in [7]; 0.685 µM in test [8]. Besides, the GI50 in [9] was 0.624 µM. For the same compound, the TGI was 56.5 µM and 57.2 µM in test [1]; 42.5 µM and 40.2 µM in [2]; 44 µM and 58.3 µM in test [3]; 72.6 µM and 73.8 µM in [11]; 66.9 µM and 58.4 µM in test [4]; 43.4 µM and 35.6 µM in [5]. The TGI in test [6] was 23.1 µM; in [7], 26.7 µM and 30.8 µM; in test [8], 7.3 µM and 7.53 µM; in test [9], 9.12 µM and 11.1 µM; in [10] it was 34.3 µM.
On to `CC[C@@]1(O)C(=O)OCc2c1cc1n(c2=O)Cc2cc3ccccc3nc2-1`, for which the TGI in test [1] is 0.126 µM; in test [2], 45.6 µM; in test [3], 0.64 µM; in test [11], 1.04 µM; in test [4], 1.42 µM; in test [5], 0.765 µM. In addition, the TGI in test [6] was 0.285 µM; in test [7], 1.91 µM; in test [8], 4.01 µM; in test [9], 0.769 µM; in test [10], 2.6 µM. The GI50 in test [2] was 0.0514 µM; in test [11] it was 0.111 µM; in test [4], 0.0241 µM; in [8], less than 0.01 µM; in test [9], less than 0.0129 µM.
Turning to `C=C(C)[C@@H]1CCC2=C[C@H](C/C(C)=C\C3=CC(C)=C(O3)[C@H]1O)OC2=O`, the TGI in test [1], in [2], in test [3], in test [11], in [5] and in test [6] was greater than 100 µM throughout. The TGI in test [8], in [9] and in [10] was greater than 100 µM throughout.
With `OCC(O)CNc1ncnc2ccccc12` (stereo not drawn), the TGI in test [1], in test [2], in test [3], in test [11], in [4] and in test [5] was greater than 100 µM throughout. The TGI in test [6], in [7], in [8], in test [9] and in test [10] was greater than 100 µM in each case.
Turning to `CC(=O)Nc1cccc(N2C(=O)/C(=C\c3cccc(Oc4ccccc4)c3)S(=O)(=O)C2c2ccccc2)c1` (stereo not drawn), the TGI was greater than 100 µM in test [1]; 79.2 µM in test [2]; greater than 100 µM in test [3]; greater than 100 µM in test [11]; greater than 100 µM in test [4]; greater than 100 µM in [5]. Besides, the TGI in test [6], in test [7], in test [9] and in test [10] was greater than 100 µM throughout.
With `C[C@@H]1C(=O)O[C@H]1[C@H](O)CO`, the TGI in [1], in test [3], in test [11], in test [4], in test [5] and in [6] was greater than 100 µM each time. Moreover, the TGI in test [7], in test [9] and in test [10] was greater than 100 µM each time.
Regarding `OC[C@H]1NC[C@@H](O)[C@@H](O)[C@H]1O`, the TGI in test [1], in test [2], in [3], in [11], in test [4] and in [5] was greater than 100 µM throughout. The TGI in test [6], in test [7], in test [9] and in [10] was greater than 100 µM each time.
As for `CC(C)(C)OC(=O)N1C(OP(=O)(Oc2ccccc2)Oc2ccccc2)=CSc2ccccc21`, the TGI in test [1] was greater than 100 µM; in test [2] it was greater than 100 µM; in test [3], greater than 100 µM; in [11], greater than 100 µM; in test [4], greater than 100 µM; in test [5], 52 µM. Besides, the TGI in [6], in test [7], in test [8], in test [9] and in test [10] was greater than 100 µM each time.
